Data taken from patent US8053553B2, “Targeting host proteinases as a therapeutic strategy against viral and bacterial pathogens” (Socpra Sciences Sante Et Humaines, priority 2007, dated 2011).
Non-standard residues stand in square brackets, D forms with d. Residues, ends and D or L forms follow the SMILES beside them. Sar = CNCC(=O)O

target: T1, furin (Homo sapiens, UniProt P09958); assay: biochemical; settings: furin, Pyr-RTKR-AMC substrate; N-terminal deletions (Example 2, Table 6); read-out: Ki
T1 construct: made in house; host or cells: Drosophila S2 cells (Invitrogen expression system)
T1 sequence (P09958 108-794 limits assumed): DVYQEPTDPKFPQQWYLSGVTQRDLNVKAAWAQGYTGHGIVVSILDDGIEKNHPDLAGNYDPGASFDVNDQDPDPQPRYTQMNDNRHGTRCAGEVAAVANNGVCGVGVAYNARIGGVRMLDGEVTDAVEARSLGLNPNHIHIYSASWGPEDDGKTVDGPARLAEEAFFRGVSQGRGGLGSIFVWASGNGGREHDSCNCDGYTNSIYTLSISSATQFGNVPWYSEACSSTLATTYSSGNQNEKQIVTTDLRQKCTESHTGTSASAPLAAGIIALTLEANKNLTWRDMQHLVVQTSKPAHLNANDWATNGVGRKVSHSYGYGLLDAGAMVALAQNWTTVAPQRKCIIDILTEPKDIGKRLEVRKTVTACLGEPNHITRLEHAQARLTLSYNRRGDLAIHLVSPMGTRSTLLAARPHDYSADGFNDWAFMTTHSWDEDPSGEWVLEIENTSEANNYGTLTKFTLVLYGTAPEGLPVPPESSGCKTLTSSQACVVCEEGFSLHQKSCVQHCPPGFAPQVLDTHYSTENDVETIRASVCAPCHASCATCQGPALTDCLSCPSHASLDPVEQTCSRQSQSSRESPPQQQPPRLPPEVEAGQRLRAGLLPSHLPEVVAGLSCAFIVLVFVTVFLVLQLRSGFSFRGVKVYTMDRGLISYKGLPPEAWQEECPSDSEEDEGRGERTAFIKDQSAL

Row | SMILES | Ki [nM]
1 | C[C@@H](O)[C@H](NC(=O)[C@H](CCCNC(=N)N)NC(=O)[C@H](CCCCN)NC(=O)[C@H](CCCCN)NC(=O)[C@@H](N)CCCNC(=N)N)C(N)=O [RKKRT] (H-RKKRT-NH2) | 1000

same assay, conditions: furin, Pyr-RTKR-AMC substrate; alanine scanning mutagenesis of the H5 furin cleavage sequence (Table 2); read-out: Ki

Row | SMILES | Ki [nM]
2 | C[C@H](N)C(=O)N[C@@H](C)C(=O)N[C@@H](CCCNC(=N)N)C(=O)N[C@@H](CCC(=O)O)C(=O)N[C@@H](CCCNC(=N)N)C(=O)N[C@@H](CCCNC(=N)N)C(=O)N[C@@H](CCCNC(=N)N)C(=O)N[C@@H](CCCCN)C(=O)N[C@@H](CCCCN)C(=O)N[C@@H](CCCNC(=N)N)C(N)=O (H-AARERRRKKR-NH2) | > 100
3 | C[C@H](NC(=O)[C@H](CCCCN)NC(=O)[C@H](CCCNC(=N)N)NC(=O)[C@H](CCCNC(=N)N)NC(=O)[C@H](CCCNC(=N)N)NC(=O)[C@H](CCC(=O)O)NC(=O)[C@H](CCCNC(=N)N)NC(=O)[C@@H]1CCCN1C(=O)[C@@H](N)[C@@H](C)O)C(=O)N[C@@H](C)C(=O)N(C)CC(N)=O (H-TPRERRRKAA[Sar]-NH2) | > 100
4 | CC(C)[C@H](NC(=O)[C@H](CCCNC(=N)N)NC(=O)[C@H](CCCCN)NC(=O)[C@H](CCCCN)NC(=O)[C@H](CCCNC(=N)N)NC(=O)[C@H](C)NC(=O)[C@H](C)NC(=O)[C@H](CCC(=O)O)NC(=O)[C@H](CCCNC(=N)N)NC(=O)[C@@H]1CCCN1C(=O)[C@@H](N)[C@@H](C)O)C(N)=O (H-TPREAARKKRV-NH2) | > 100
5 | C[C@H](NC(=O)[C@H](CCCNC(=N)N)NC(=O)[C@H](CCCNC(=N)N)NC(=O)[C@H](CCC(=O)O)NC(=O)[C@H](CCCNC(=N)N)NC(=O)[C@@H]1CCCN1C(=O)[C@@H](N)[C@@H](C)O)C(=O)N[C@@H](CCCCN)C(=O)N[C@@H](CCCCN)C(=O)N[C@@H](CCCNC(=N)N)C(=O)N(C)CC(N)=O (H-TPRERRAKKR[Sar]-NH2) | > 100
6 | C[C@H](NC(=O)[C@H](C)NC(=O)[C@@H]1CCCN1C(=O)[C@@H](N)[C@@H](C)O)C(=O)N[C@@H](C)C(=O)N[C@@H](CCCNC(=N)N)C(=O)N[C@@H](CCCNC(=N)N)C(=O)N[C@@H](CCCCN)C(=O)N[C@@H](CCCCN)C(=O)N[C@@H](CCCNC(=N)N)C(N)=O (H-TPAAARRKKR-NH2) | > 100
7 | C[C@H](N)C(=O)N[C@@H](C)C(=O)N[C@@H](C)C(=O)N[C@@H](CCC(=O)O)C(=O)N[C@@H](CCCNC(=N)N)C(=O)N[C@@H](CCCNC(=N)N)C(=O)N[C@@H](CCCNC(=N)N)C(=O)N[C@@H](CCCCN)C(=O)N[C@@H](CCCCN)C(=O)N[C@@H](CCCNC(=N)N)C(N)=O (H-AAAERRRKKR-NH2) | > 100
8 | C[C@H](NC(=O)[C@H](C)NC(=O)[C@H](CCCNC(=N)N)NC(=O)[C@H](CCCNC(=N)N)NC(=O)[C@H](CCC(=O)O)NC(=O)[C@H](CCCNC(=N)N)NC(=O)[C@@H]1CCCN1C(=O)[C@@H](N)[C@@H](C)O)C(=O)N[C@@H](CCCCN)C(=O)N[C@@H](CCCNC(=N)N)C(=O)NCC(N)=O (H-TPRERRAAKRG-NH2) | > 100
9 | C[C@H](NC(=O)[C@H](C)NC(=O)[C@@H]1CCCN1C(=O)[C@@H](N)[C@@H](C)O)C(=O)N[C@@H](C)C(=O)N[C@@H](CCCNC(=N)N)C(=O)N[C@@H](CCCNC(=N)N)C(=O)N[C@@H](CCCCN)C(=O)N[C@@H](CCCCN)C(=O)N[C@@H](CCCNC(=N)N)C(=O)N(C)CC(N)=O (H-TPAAARRKKR[Sar]-NH2) | > 100
10 | C[C@H](N)C(=O)N1CCC[C@H]1C(=O)N[C@@H](CCCNC(=N)N)C(=O)N[C@@H](CCC(=O)O)C(=O)N[C@@H](CCCNC(=N)N)C(=O)N[C@@H](CCCNC(=N)N)C(=O)N[C@@H](CCCNC(=N)N)C(=O)N[C@@H](CCCCN)C(=O)N[C@@H](CCCCN)C(=O)N[C@@H](CCCNC(=N)N)C(N)=O (H-APRERRRKKR-NH2) | > 100

same assay, conditions: furin, Pyr-RTKR-AMC substrate; optimization of the inhibitory peptides (Table 3); read-out: Ki

Row | SMILES | Ki [nM]
11 | C[C@@H](O)[C@H](N)C(=O)N1CCC[C@H]1C(=O)N[C@@H](CCC(N)=O)C(=O)N[C@@H](CCCNC(=N)N)C(=O)N[C@@H](CS)C(=O)N[C@@H](CCCNC(=N)N)C(=O)N[C@@H](CCCNC(=N)N)C(=O)N[C@@H](CCCNC(=N)N)C(=O)N[C@@H](CCCCN)C(=O)N[C@@H](CCCCN)C(=O)N[C@@H](CCCNC(=N)N)C(=O)NCC(N)=O | > 100
12 | CSCC[C@H](NC(=O)[C@H](CCCNC(=N)N)NC(=O)[C@H](CCCCN)NC(=O)[C@H](CCCCN)NC(=O)[C@H](CCCNC(=N)N)NC(=O)[C@H](CCCNC(=N)N)NC(=O)[C@H](CCCNC(=N)N)NC(=O)[C@H](C)NC(=O)[C@H](CCCNC(=N)N)NC(=O)[C@H](CCC(N)=O)NC(=O)[C@@H]1CCCN1C(=O)[C@@H](N)[C@@H](C)O)C(N)=O (H-TPQRARRRKKRM-NH2) | 58
13 | C[C@H](NC(=O)[C@H](CCCNC(=N)N)NC(=O)[C@H](CCC(N)=O)NC(=O)[C@@H]1CCCN1C(=O)[C@@H](N)[C@@H](C)O)C(=O)N[C@@H](CCCNC(=N)N)C(=O)N[C@@H](CCCNC(=N)N)C(=O)N[C@@H](CCCNC(=N)N)C(=O)N[C@@H](CCCCN)C(=O)N[C@@H](CCCCN)C(=O)N[C@@H](CCCNC(=N)N)C(=O)N[C@@H](Cc1c[nH]cn1)C(N)=O (H-TPQRARRRKKRH-NH2) | > 100
14 | C[C@H](NC(=O)[C@H](CCCNC(=N)N)NC(=O)[C@H](CCC(N)=O)NC(=O)[C@@H]1CCCN1C(=O)[C@@H](N)[C@@H](C)O)C(=O)N[C@@H](CCCNC(=N)N)C(=O)N[C@@H](CCCNC(=N)N)C(=O)N[C@@H](CCCNC(=N)N)C(=O)N[C@@H](CCCCN)C(=O)N[C@@H](CCCCN)C(=O)N[C@@H](CCCNC(=N)N)C(=O)N[C@@H](CCC(=O)O)C(N)=O (H-TPQRARRRKKRE-NH2) | 103
15 | C[C@@H](O)[C@H](N)C(=O)N1CCC[C@H]1C(=O)N[C@@H](CCC(N)=O)C(=O)N[C@@H](CCCNC(=N)N)C(=O)N[C@@H](Cc1c[nH]cn1)C(=O)N[C@@H](CCCNC(=N)N)C(=O)N[C@@H](CCCNC(=N)N)C(=O)N[C@@H](CCCNC(=N)N)C(=O)N[C@@H](CCCCN)C(=O)N[C@@H](CCCCN)C(=O)N[C@@H](CCCNC(=N)N)C(=O)NCC(N)=O (H-TPQRHRRRKKRG-NH2) | > 100
16 | C[C@@H](O)[C@H](N)C(=O)N1CCC[C@H]1C(=O)N[C@@H](CCC(N)=O)C(=O)N[C@@H](CCCNC(=N)N)C(=O)N1CCC[C@H]1C(=O)N[C@@H](CCCNC(=N)N)C(=O)N[C@@H](CCCNC(=N)N)C(=O)N[C@@H](CCCNC(=N)N)C(=O)N[C@@H](CCCCN)C(=O)N[C@@H](CCCCN)C(=O)N[C@@H](CCCNC(=N)N)C(=O)NCC(N)=O (H-TPQRPRRRKKRG-NH2) | > 100
17 | C[C@@H](O)[C@H](N)C(=O)N1CCC[C@H]1C(=O)N[C@@H](CCC(N)=O)C(=O)N[C@@H](CCCNC(=N)N)C(=O)N[C@@H](CCCNC(=N)N)C(=O)N[C@@H](CCCNC(=N)N)C(=O)N[C@@H](CCCNC(=N)N)C(=O)N[C@@H](CCCNC(=N)N)C(=O)N[C@@H](CCCCN)C(=O)N[C@@H](CCCCN)C(=O)N[C@@H](CCCNC(=N)N)C(=O)NCC(N)=O | > 100
18 | CC[C@H](C)[C@H](NC(=O)[C@H](CCCNC(=N)N)NC(=O)[C@H](CCC(N)=O)NC(=O)[C@@H]1CCCN1C(=O)[C@@H](N)[C@@H](C)O)C(=O)N[C@@H](CCCNC(=N)N)C(=O)N[C@@H](CCCNC(=N)N)C(=O)N[C@@H](CCCNC(=N)N)C(=O)N[C@@H](CCCCN)C(=O)N[C@@H](CCCCN)C(=O)N[C@@H](CCCNC(=N)N)C(=O)NCC(N)=O (H-TPQRIRRRKKRG-NH2) | > 100

same assay, conditions: read-out: Ki

Row | SMILES | Ki [nM]
19 | C[C@H](NC(=O)[C@H](CCCNC(=N)N)NC(=O)[C@@H]1CCCN1C(=O)[C@@H](N)[C@@H](C)O)C(=O)N[C@@H](CCCNC(=N)N)C(=O)N[C@@H](CCCNC(=N)N)C(=O)N[C@@H](CCCNC(=N)N)C(=O)N[C@@H](CCCCN)C(=O)N[C@@H](CCCCN)C(=O)N[C@@H](CCCNC(=N)N)C(=O)N[C@@H](CC(=O)O)C(N)=O | 56
